Reference: patent US6737429B2, “Pyrrole derivatives” (Hoffmann-La Roche Inc., priority 2000, dated 2004)

Tests used:
HIV-1 RT = HIV-1 RT (Human immunodeficiency virus type 1 group M subtype B, UniProt P04585); assay: HIV-1 Reverse Transcriptase Assay: Inhibitor IC50 Determination; type: biochemical; conditions: purified recombinant enzyme, poly(rA)/oligo(dT)16 template-primer, 37° C. 30 min
Description: HIV-1 Reverse Transcriptase Assay: Inhibitor IC50 Determination.
HIV-1 RT assay was carried out in 96-well Millipore filtermat NOB50 plates using purified recombinant enzyme and a poly(rA)/oligo(dT)16 template-primer in a total volume of 50 μL. The assay constituents were 50 mM Tris/HCl, 50 mM NaCl, 1 mM EDTA, 6 mM MgCl2, 5 μM dTTP, 0.1 μCi [^3H] dTTP, 5 μg/ml poly (rA) pre annealed to 2.5 μg/ml oligo (dT)16 and a range of inhibitor concentrations in a final concentration of 10% DMSO. Reactions were initiated by adding 5 nM HIV-1 RT and after incubation at 37° C. for 30 min, they were stopped by the addition of 50 μl ice cold 20% TCA and allowed to precipitate at 4° C. for 30 min. The precipitates were collected by applying vacuum to the plate and sequentially washing with 2×200 μl of 10% TCA and 2×200 μl 70% ethanol. Finally the plates were dried and radioactivity counted in a Wallac Microbeta 1450 after the addition of 15 μl scintillation fluid per well. IC50's were calculated by plotting % inhibition versus log10 inhibitor concentrations.

[1] = test system: HXB2-strain of HIV in MT4 cells; assay: Antiviral assay: protection of HIV-infected MT4 cells from cell-death (MTT); type: cell-based; conditions: Human immunodeficiency virus 1, 120 h; MT4 cells infected with HXB2-strain of HIV, 5 d, MTT viability
Description: Anti-HIV antiviral activity was assessed using an adaptation of the method of Pauwels et al. {Pauwels et al., 1988, J Virol Methods 20:309-321}. The method is based on the ability of compounds to protect HIV-infected T lymphoblastoid cells (MT4 cells) from cell-death mediated by the infection. The endpoint of the assay was calculated as the concentration of compound at which the cell viability of the culture was preserved by 50% (‘50% inhibitory concentration’, IC50). The cell viability of a culture was determined by the uptake of soluble, yellow 3-[4,5-dimethylthiazol-2-yl]-2,5-diphenyltetrazolium bromide (MTT) and its reduction to a purple insoluble formazan salt. After solubilization, spectrophotometric methods were employed to measure the amount of formazan product.
MT4 cells were prepared to be in logarithmic-phase growth and a total of 2×10^6 cells infected with the HXB2-strain of HIV at a multiplicity of 0.0001 infectious units of virus per cell in a total volume of between 200-500 microliters. The cells were incubated with virus for one h at 37° C. before removal of virus. The cells are then washed in 0.01 M phosphate buffered saline, pH 7.2 before being resuspensed in culture medium for incubation in culture with serial dilutions of test compound. The culture medium used was RPMI 1640 without phenol red, supplemented with penicillin, streptomycin, L-glutamine and 10% fetal calf serum (GM10).
Test compounds were prepared as 2 mM solutions in dimethyl sulphoxide (DMSO). Four replicate, serial 2-fold dilutions in GM10 were then prepared and 50 microliters amounts placed in 96-well plates over a final nanomolar concentration range of 625-1.22. Fifty microliters GM10 and 3.5×10^4 infected cells were then added to each well. Control cultures containing no cells (blank), uninfected cells (100% viability; 4 replicates) and infected cells without compound (total virus-mediated cell death; 4 replicates) were also prepared. The cultures were then incubated at 37° C. in a humidified atmosphere of 5% CO2 in air for 5 d.
A fresh solution of 5 mg/mL MTT was prepared in 0.01 M phosphate buffered saline, pH 7.2 and 20 microliters added to each culture. The cultures were further incubated as before for 2 h. They were then mixed by pipetting up and down and 170 microliters of Triton X-100 in acidified isopropanol (10% v/v Triton X-100 in 1:250 mixture of concentrated HCl in isopropanol). When the formazan deposit was fully solubilized by further mixing, the absorbance (OD) of the cultures was measured at 540 nm and 690 nm wavelength (690 nm readings were used as blanks for artifacts between wells). The percent protection for each treated culture was calculated using the equation: [formula]

Structure (SMILES) | IC50 (HIV-1 RT) | IC50 [1]
Cc1c(CO)c(C(C)C)c(Sc2cc(Cl)cc(Cl)c2)n1Cc1cccnc1 | 79 nM | 17.5 nM
Cc1c(CO)c(C(C)C)c(Sc2cc(Cl)cc(Cl)c2)n1C | 930 nM | 580 nM
Cc1c(CO)c(C(C)C)c(Sc2cccc(Cl)c2)n1Cc1cscn1 | 4120 nM | 
Cc1c(CO)c(C(C)C)c(Sc2ccccc2)n1Cc1ccncc1 | 260 nM | 11.5 nM
Cc1c(CO)c(C(C)C)c(Sc2ccc(F)cc2Cl)n1Cc1ccncc1 | 5430 nM | 
Cc1c(CO)c(C(C)C)c(Sc2cc(Cl)ccc2Cl)n1Cc1ccncc1 | 86 nM | 69 nM
Cc1c(CO)c(-c2ccccc2)c(Sc2cc(Cl)cc(Cl)c2)n1Cc1ccncc1 | 493 nM | 407 nM
CC(=O)NCc1c(C(C)C)c(Sc2cc(Cl)cc(Cl)c2)n(Cc2ccncc2)c1C | 198 nM | 32 nM
Cc1cc(C(C)C)c(Sc2cc(Cl)cc(Cl)c2)n1Cc1ccncc1 | 117 nM | 44 nM
Cc1c(CN=[N+]=[N-])c(C(C)C)c(Sc2cc(Cl)cc(Cl)c2)n1Cc1ccncc1 | 91 nM | 16 nM
COC(=O)NCc1c(C(C)C)c(Sc2cc(Cl)cc(Cl)c2)n(Cc2ccncc2)c1C | 90 nM | 
COCc1c(C(C)C)c(Sc2cc(Cl)cc(Cl)c2)n(Cc2ccncc2)c1C | 658 nM | 91 nM
CC(C)c1cc(CO)n(Cc2ccncc2)c1Sc1cc(Cl)cc(Cl)c1 | 289 nM | 183 nM
CC(=O)/C=C/c1cc(C(C)C)c(Sc2cc(Cl)cc(Cl)c2)n1Cc1ccncc1 | 972 nM | 
Cc1c(C#N)c(-c2ccccc2)c(Sc2cc(Cl)cc(Cl)c2)n1Cc1ccncc1 | 2450 nM | 
Cc1c(CO)c(C)n(Cc2ccncc2)c1Sc1cc(Cl)cc(Cl)c1 | 287 nM | 49 nM
Cc1c(C(N)=O)c(C(C)C)c(Sc2cc(Cl)cc(Cl)c2)n1Cc1ccncc1 | 150 nM | 22 nM
Cc1c(C(C)C)c(Sc2cc(Cl)cc(Cl)c2)n(Cc2ccncc2)c1C | 125 nM | 94 nM
Cc1c(CNC(=O)c2ccccc2)c(C(C)C)c(Sc2cc(Cl)cc(Cl)c2)n1Cc1ccncc1 | 283 nM | 84 nM
CC(C)c1cc(COC(N)=O)n(Cc2ccncc2)c1Sc1cc(Cl)cc(Cl)c1 | 33 nM | 16 nM
CCc1c(CO)c(C(C)C)c(Sc2cc(Cl)cc(Cl)c2)n1Cc1ccncc1 | 43 nM | 11 nM
CC(C)c1c(CO)c(C(C)C)n(Cc2ccncc2)c1Sc1cccc(Cl)c1 | 272 nM | 110 nM
CC(C)c1c(CO)c(CO)n(Cc2ccncc2)c1Sc1cc(Cl)cc(Cl)c1 | 60 nM | 10 nM
